Assay results reported in patent US8912120B2, “Herbicidal compositions comprising 4-amino-3-chloro-5-fluoro-6-(4-chloro-2-fluoro-3-methoxyphenyl) pyridine-2-carboxylic acid or a derivative thereof and synthetic auxin herbicides” (Dow AgroSciences, LLC., priority 2012, dated 2014).
Counter-ions that a name gives are not always drawn.

Tests used:
[1] = tested on: SORHA; test: Example III: postemergence foliar-applied herbicidal mixtures, row crop weeds, SORHA; format: in vivo, Sorghum halepense (johnsongrass); settings: 13 DAA; 7.5 gae/ha
Protocol: (§1) The plants were grown for 7-31 days (d) in a greenhouse with an approximate 15 hour (h) photoperiod which was maintained at about 23-29° C. during the day and 22-28° C. during the night.

[2] = tested on: ELEIN; test: Example III: postemergence foliar-applied herbicidal mixtures, weeds common to row crops such as corn and soybeans (greenhouse), ELEIN; format: in vivo, Eleusine indica (goosegrass); settings: 17 DAA
Protocol: as §1

[3] = tested on: CYPIR; test: Example II: in-water applied herbicidal mixtures, transplanted paddy rice, CYPIR; format: in vivo, Cyperus iria L. (flatsedge; settings: 21 DAA; 560 gai/ha
[4] = tested on: AMARE; test: Example IV: postemergence foliar-applied herbicidal mixtures, weed control in cereal crops in the greenhouse, AMARE; format: in vivo, Amaranthus retroflexus (redroot pigweed); settings: alone, 140 gai/ha, 20-22 days
Protocol: (§2) Seeds of the desired test plant species were planted in Sun Gro MetroMix 306 planting mixture, which typically has a pH of 6.0 to 6.8 and an organic matter content of about 30 percent, in plastic pots with a surface area of 103.2 square centimeters (cm^2). […] The plants were grown for 7-36 days in a greenhouse with an approximate 14 hour photoperiod which was maintained at about 18° C. during the day and 17° C. during the night.
(§3) Spray solutions of the second cereal herbicide and experimental compound mixtures were prepared by adding the stock solutions to the appropriate amount of dilution solution to form 12 mL spray solution with active ingredients in two- and three-way combinations.

[5] = tested on: VIOTR; test: Example IV: postemergence foliar-applied herbicidal mixtures, cereal crops, VIOTR; format: in vivo, Viola tricolor (wild pansy); settings: alone, 140 gai/ha, foliar, 20-22 days
Protocol: as §2, §3

[6] = tested on: ECHCG; test: Example I: postemergence foliar-applied herbicidal mixtures, direct seeded rice, ECHCG
Protocol: (§6) The soil matrix was contained in plastic pots with a volume of 1 quart and a surface area of 83.6 square centimeters (cm^2). […] The plants were grown for 8-22 days in a greenhouse with an approximate 14 h photoperiod which was maintained at about 29° C. during the day and 26° C. during the night. Nutrients (Peters Excel® 15-5-15 5-Ca 2-Mg and iron chelate) were applied in the irrigation solution as needed and water was added on a regular basis. Supplemental lighting was provided with overhead metal halide 1000-Watt lamps as necessary. The plants were employed for testing when they reached the first through fourth true leaf stage.
(§7) Treatments consisted of the acid or esters of 4-amino-3-chloro-5-fluoro-6-(4-chloro-2-fluoro-3-methoxy-phenyl)pyridine-2-carboxylic acid (Compound A), each formulated as an SC (suspension concentrate), and various herbicidal components alone and in combination. Forms of compound A were applied on an acid equivalent basis.
(§8) For treatments comprised of formulated compounds, measured amounts of compounds were placed individually in 25 mL glass vials and diluted in a volume of 1.25% (v/v) Agri-Dex® crop oil concentrated to obtain 12× stock solutions. […] Application solutions were prepared by adding an appropriate amount of each stock solution (e.g., 1 mL) and diluted to the appropriate final concentrations with the addition of 10 mL of an aqueous mixture of 1.25% (v/v) crop oil concentrate so that the final spray solutions contained 1.25+/−0.05% (v/v) crop oil concentrate.
(§9) All stock solutions and applications solutions were visually inspected for compound compatibility prior to application. Spray solutions were applied to the plant material with an overhead Mandel track sprayer equipped with a 8002E nozzles calibrated to deliver 187 L/ha over an application area of 0.503 m^2 at a spray height of 18 to 20 inches (46 to 50 cm) above average plant canopy height. Control plants were sprayed in the same manner with the solvent blank.
(§10) The treated plants and control plants were placed in a greenhouse as described above and watered by sub-irrigation to prevent wash-off of the test compounds. After approximately 3 weeks, the condition of the test plants as compared with that of the untreated plants was determined visually and scored on a scale of 0 to 100 percent where 0 corresponds to no injury or growth inhibition and 100 corresponds to complete kill.
(§11) Colby's equation was used to determine the herbicidal effects expected from the mixtures (Colby, S. R. 1967. Calculation of the synergistic and antagonistic response of herbicide combinations. Weeds 15:20-22).
(§12) The following equation was used to calculate the expected activity of mixtures containing two active ingredients, A and B: Expected=A+B−(A×B/100)
(§13) A=observed efficacy of active ingredient A at the same concentration as used in the mixture.
(§14) B=observed efficacy of active ingredient B at the same concentration as used in the mixture.

[7] = tested on: DIGSA; test: Example I: postemergence foliar-applied herbicidal mixtures, direct seeded rice, DIGSA; settings: 560 gai/ha
Protocol: as §6, §7, §8, §9, §10, §11, §12, §13, §14

[8] = tested on: CYPIR; test: Example I: postemergence foliar-applied herbicidal mixtures, direct seeded rice, CYPIR; format: in vivo, Cyperus iria (rice flatsedge)
Protocol: as §6, §7, §8, §9, §10, §11, §12, §13, §14

[9] = tested on: CYPES; test: Example I: postemergence foliar-applied herbicidal mixtures, direct seeded rice, CYPES; format: in vivo, Cyperus esculentus (yellow nutsedge)
Protocol: as §6, §7, §8, §9, §10, §11
The following equation was used to calculate the expected activity of mixtures containing two active ingredients, A and B: Expected=A+B−(A×B/100) […]

[10] = tested on: SCPMA; test: Example II: in-water applied herbicidal mixtures, transplanted paddy rice, SCPMA; format: in vivo; settings: 20 DAA; 560 gai/ha
Protocol: (§4) The prepared mud was dispensed in 365 mL aliquots into 16-ounce (oz.) non-perforated plastic pots with a surface area of 86.59 square centimeters (cm^2) leaving a headspace of 3 centimeters (cm) in each pot Mud was allowed to dry overnight prior to planting or transplanting. Rice seeds were planted in Sun Gro MetroMix® 306 planting mixture, which typically has a pH of 6.0 to 6.8 and an organic matter content of about 30 percent, in plastic plug trays. Seedlings at the second or third leaf stage of growth were transplanted into 840 mL of mud contained in 32-oz. non-perforated plastic pots with a surface area of 86.59 cm^2 4 days prior to herbicide application. […] Nutrients were added as Osmocote® (19:6:12, N:P:K^+ minor nutrients) at 2 g per 16-oz. pot and 4 g per 32-oz. pot.
(§5) Applications were made by injecting with a pipetter appropriate amounts of the application solutions, individually and sequentially, into the aqueous layer of the paddy. Control plants were treated in the same manner with the solvent blank. Applications were made so that all treated plant material received the same concentrations of acetone and crop oil concentrate.

[11] = tested on: POLCO; test: Example IV: postemergence foliar-applied herbicidal mixtures, cereal crops, POLCO; format: in vivo, Polygonum convolvulus (wild buckwheat); settings: alone, 140 gai/ha, foliar, 20-22 days
Protocol: as §2, §3

[12] = tested on: ECHOR; test: Example II: in-water applied herbicidal mixtures, transplanted paddy rice, ECHOR; format: in vivo, Echinochloa oryzoides (early watergrass); settings: Echinochloa oryzoides, read-out: Visual Weed Control (%) Obs
Protocol: as §4, §5

[13] = tested on: ISCRU; test: Example I: postemergence foliar-applied herbicidal mixtures, direct seeded rice, ISCRU; format: in vivo, Ischaemum rugosum (saramollagrass)
Protocol: as §6, §7, §8, §9, §10, §11, §12, §13, §14

[14] = tested on: SCPJU; test: Example II: in-water applied herbicidal mixtures, transplanted paddy rice, SCPJU; format: in vivo, Schoenoplectus juncoides (Japanese bulrush); settings: 22 DAA
Protocol: as §4, §5

[15] = tested on: ECHCG; test: Example II: in-water applied herbicidal mixtures, transplanted paddy rice, ECHCG; format: in vivo, Echinochloa crus-galli (barnyardgrass); settings: 22 DAA
Protocol: as §4, §5

[16] = tested on: FIMMI; test: Example II: in-water applied herbicidal mixtures, transplanted paddy rice, FIMMI; format: in vivo, Fimbristylis miliacea (globe fringerush); settings: 22 DAA
Protocol: as §4, §5

[17] = tested on: CYPRO; test: Example II: in-water applied herbicidal mixtures, weed control in transplanted paddy rice (greenhouse), CYPRO; format: in vivo, Cyperus rotundus (purple nutsedge); settings: 22 DAA
Protocol: as §4, §5

[18] = tested on: LEFCH; test: Example II: in-water applied herbicidal mixtures, transplanted paddy rice, LEFCH; format: in vivo, Leptochloa chinensis (Chinese sprangletop); settings: 22 DAA
Protocol: as §4, §5

COc1c(Cl)ccc(-c2cc(N)c(Cl)c(C(=O)[O-])n2)c1F.[K+] [Halauxifen K^+ Salt]
Visual Weed Control (%) Obs [1]: 0%
Visual Weed Control (%) Obs ([2]; 3.75 gae/ha): 30%
Visual Weed Control (%) Obs ([2]; 7.5 gae/ha): 40%
Visual Weed Control (%) Obs ([2]; 15 gae/ha): 50%

O=C(O)c1c(Cl)ccc2cc(Cl)cnc12 [Quinclorac, 3,7-dichloro-8-quinolinecarboxylic acid]
Visual Weed Control (%) Obs [3]: 0%
AMARE Ob (observed value) [4]: 27%
VIOTR Ob (observed value) [5]: 0%
Visual Weed Control (%) - 21 DAA ECHCG Obs ([6]; 70 gai/ha): 15%
Visual Weed Control (%) - 21 DAA ECHCG Obs ([6]; 140 gai/ha): 30%
Visual Weed Control (%) - 21 DAA ECHCG Obs ([6]; 280 gai/ha): 30%
Visual Weed Control (%) - 20 DAA DIGSA Obs [7]: 8%
Visual Weed Control (%) - 21 DAA DIGSA Obs [7]: 8%
Visual Weed Control (%) - 21 DAA CYPIR Obs ([8]; 70 gai/ha): 0%
Visual Weed Control (%) - 21 DAA CYPIR Obs ([8]; 140 gai/ha): 0%
Visual Weed Control (%) - 21 DAA CYPIR Obs ([8]; 280 gai/ha): 0%
Visual Weed Control (%) - 21 DAA CYPES Obs ([9]; 70 gai/ha): 0%
Visual Weed Control (%) - 21 DAA CYPES Obs ([9]; 140 gai/ha): 0%
Visual Weed Control (%) - 21 DAA CYPES Obs ([9]; 280 gai/ha): 0%
Visual Weed Control (%) Obs [10]: 0%
POLCO Ob (observed value) [11]: 3%
pest or weed control at 560 g/ha ([12]; 480 h, 20 DAA, 560 gai/ha): 20%
Visual Weed Control (%) - 21 DAA ISCRU Obs ([13]; 140 gai/ha): 0%
Visual Weed Control (%) - 21 DAA ISCRU Obs ([13]; 280 gai/ha): 0%
Visual Weed Control (%) - 21 DAA ISCRU Obs ([13]; 560 gai/ha): 0%

O=C(O)COc1nc(Cl)c(Cl)cc1Cl [Triclopyr Choline Salt, 2-hydroxy-N,N,N-trimethylethanaminium 2-((3,5,6-trichloropyridin-2-yl)oxy)acetate, reference compound]
Visual Weed Control (%) Obs ([14]; 70 gae/ha): 15%
Visual Weed Control (%) Obs ([14]; 140 gae/ha): 50%
Visual Weed Control (%) Obs ([15]; 70 gae/ha): 15%
Visual Weed Control (%) Obs ([15]; 140 gae/ha): 20%
Visual Weed Control (%) Obs ([16]; 70 gae/ha): 15%
Visual Weed Control (%) Obs ([16]; 140 gae/ha): 80%
Visual Weed Control (%) Obs ([17]; 70 gae/ha): 0%
Visual Weed Control (%) Obs ([17]; 140 gae/ha): 0%
Visual Weed Control (%) Obs ([18]; 70 gae/ha): 0%
Visual Weed Control (%) Obs ([18]; 140 gae/ha): 0%
pest or weed control at 70 g/ha ([12]; 528 h, 22 DAA, 70 gae/ha): 10%
pest or weed control at 140 g/ha ([12]; 528 h, 22 DAA, 140 gae/ha): 15%
